The text below walks through data of patent US9931309B2, “Curcumin-sophorolipid complex” (COUNCIL OF SCIENTIFIC & INDUSTRIAL RESEARCH, priority 2014, dated 2018).

One data set concerns MCF-7 cells. Kind of data set: cells. Format: cell-based. Here is the method: (§1) All the experiments were performed in triplicates and repeated twice and the data has been presented as mean±SD. Statistical analysis was conducted with the Graph Pad 4 prism program using one-way ANOVA. The p values used for comparisons were <0.05. IC50 values were calculated using Kyplot software.
(§2) In order to determine whether acidic sophorolipid enhanced the bioavailability of Curcumin in cancerous cell lines, the cytotoxic potential of the aqueous SL(A)+Cur complex was tested in breast cancer lines MCF-7 and MDA-MB-231 and was compared with that of aqueous SL(A), Cur in water, and Cur dissolved in ethanol, the latter was used as a positive control.
(§3) Cyto-toxicity analysis of the present curcumin-SL(A) complex was performed using mammalian breast cancer cell lines by the MTT dye uptake assay. […] MTT solution (5 mg/ml) was added to each well and the cells were cultured for another 4 h at 37° C. in a 5% CO2 incubator. The formazan crystals formed were dissolved by addition of 90 μL of SDS-DMF (20% SDS in 50% DMF). After 15 min, the concentration of colored formazan derivative was determined by measuring optical density (OD) using the ELISA microplate reader (Biorad, Hercules, Calif.) at 570 nm (OD: 570-630 nm). The percentage viability was calculated as: % Viability=[OD of treated cells/OD of control cells]×100 Percentage Viability Observed Post Treatment

A short description of data set [1]: Dynamic Light Scattering (DLS) measurements, particle size. It is filed as physicochemical. The following applies: 10 mg dissolved in 10 ml H2O. On the procedure: The Dynamic Light Scattering (DLS) measurements were carried using the out on Brookhaven Instrument model 90 Plus Particle Size Analyzer. The solutions, i.e. Cur, SL(A) and the present SL(A)+Curcumin nano-assembly were analyzed at a constant shutter opening diameter in the DLS apparatus. […] This was also confirmed with the results obtained by SEM and TEM analysis depicted in FIG. 4. Field emission scanning electron microscopy images acquired on FEI QUANTA 200 microscope, equipped with a tungsten filament gun, operating at WD 10.6 mm and 20 kV. A 10 μL aliquot of all three sample solution were placed on silicon wafer and fixed on copper stubs with help of carbon tape. The samples were dried at room temperature for overnight and images were recorded without gold coating.

A short description of data set [2]: Appearance / solubilization of aqueous test solutions. The following applies: 100 μg/ml. It is filed as physicochemical.
Experimental: Optical properties of the present complex SL(A)+ curcumin complex were determined by UV-Vis and Photoluminescence studies analysis. Accordingly, the optical properties of SL(A), curcumin and the present sophorolipid-curcumin (SL(A)+Cur) self-assembly were compared. UV-Vis absorption spectra were recorded on Varian CARY 100 Bio UV-Vis spectrophotometer respectively, with 10 mm quartz cell at 25±0.1° C. For recording the spectra, 3 ml solutions of SL(A), Cur and SL(A)+Cur solution were prepared with having a concentration of 100 μg/ml. The solutions of this were mixed gently and subsequently the spectra were recorded.
Visible differences in the appearance of each of the test solutions were observed.
A short description of the next data set: Zeta potential. The following applies: dispersions without any dilution. Format: physicochemical. Here is the method:
The surface charges of the SL(A), Cur and SL(A)+Cur were determined using a zeta potential analyzer (Brookhaven Instruments Corporation, NY). The average zeta potentials of the nano self-assembly dispersions were determined without any dilution.

The subject of another data set is MDA-MB-231 cells. Kind of data set: MTT cytotoxicity assay in MDA-MB-231 cells. It is filed as cell-based. On the procedure: as §1, §2, §3
(In general: Formazan colour is commonly taken as a measure of viable cells.)

One may read the viability as a per cent measure of how many cells are alive, often set against a control. `COc1cc(/C=C/C(=O)CC(=O)/C=C/c2ccc(O)c(OC)c2)ccc1O` [Cur, diferuloylmethane] returned a viability at 5 µg/mL in the data set on MCF-7 cells (Homo sapiens, MCF7) of 100%. In the data set on MCF-7 cells (Homo sapiens, MCF7), this compound displayed a viability at 10 µg/mL of 100%. The compound also had a viability at 20 µg/mL in the data set on MCF-7 cells (Homo sapiens, MCF7) of 100%. In the data set on MCF-7 cells (Homo sapiens, MCF7), this compound returned a viability at 40 µg/mL of 95%. In addition, in the data set with MCF-7 cells (Homo sapiens, MCF7), the viability at 80 µg/mL was 93%. The compound also gave a viability at 120 µg/mL in the data set with MCF-7 cells (Homo sapiens, MCF7) of 91%. Further, the “activity against the cancerous cell lines” value in the data set on MCF-7 cells (MCF-7) and with MDA-MB-231 cells (MDA-MB-231) was “no activity” each time. In addition, the “concentration from which anticancer activity (growth inhibition) commences” value with MCF-7 cells (MCF-7, FIG. 7(a), for the complex as concentration of Cur) came out at 40 µg/mL. Also, the “relative toxicity at low to moderate dose” value with MCF-7 cells (MCF-7, low to moderate dose range (5-20 μg/ml)) is recorded as “more toxic”. In addition, the hydrodynamic radius entry was “about 818 nm” in data set [1] and 818.6 nm in data set [1] (listed as Curcumin). In data set [2], the “appearance of the solution” value is on record as “turbid”. Further, in “Zeta potential”, the zeta potential is listed as −15.14 mV. The “concentration at which cytotoxicity is exhibited” value with MDA-MB-231 cells amounted to 20000 ng/mL. Moreover, the “% viability” value is 100% with MDA-MB-231 cells (MDAMB 231, 5 μg/ml); 100% in the data set on MDA-MB-231 cells (MDAMB 231, 10 μg/ml); 100% with MDA-MB-231 cells (MDAMB 231, 20 μg/ml); 95% with MDA-MB-231 cells (MDAMB 231, 40 μg/ml); 93% in the data set with MDA-MB-231 cells (MDAMB 231, 80 μg/ml); 91% in the data set with MDA-MB-231 cells (MDAMB 231, 120 μg/ml).
